From patent publication US20140335021A1, “Ocular Neostigmine Drops for Diagnosing Myasthenia Gravis” (priority 2013, published 2014)

What was measured:
[1] = test system: patients with probable or definite MG; assay: Ocular neostigmine drop test for ptosis in patients with probable or definite myasthenia gravis; format: in vivo, human
Protocol: (§1) 2) experiments in which the standard IV neostigmine solution was instilled into both eyes of patients with probable or definite symptomatic MG.
(§2) Both sets of experiments used the standard neostigmine (2.5 mg/ml) solution available in hospitals for anesthetic/surgical use for reversal of neuromuscular block. This solution is buffered and FDA-approved for use in humans. In both sets of experiments, one drop of this solution was used in an eye, limiting substantially the amount of drug that might be absorbed systemically.
Patients with probable or definite MG were asked to sign informed consent approved by the appropriate Institutional Ethics Committees. Ptosis was recorded photographically, and pulse and blood pressure were also recorded prior to beginning the test. One drop of standard IV neostigmine solution (2.5 mg/ml) was instilled into each symptomatic eye of the patient. Fifteen minutes later, possible changes in ptosis were assessed. Pulse and blood pressure was recorded again and after another 15 minutes. At 30 minutes, the patient was evaluated also for possible changes in ptosis (documented by photography), obvious irritation of either eye and for report of discomfort.
Six patients (3 males and 3 females) who presented with ptosis and/or ocular motility disturbance were enrolled in the study. Their ages ranged between 4.5 and 55 years (median=42 years, mean=36.4 years). […]

[2] = test system: New Zealand White rabbits; assay: Ocular inflammation on daily instillation for 7 days in rabbits; format: in vivo; settings: one drop daily for 7 days, rabbit eye
Protocol: as §1
(§3) The pupil size of both the right and left eyes of each rabbit was measured at baseline in mms by using a plastic ruler. After instilling the neostigmine solution (right eye) or saline (left eye), the pupil size was measured again at 30 minute intervals following drug or saline instillation. One drop of neostimine was instilled daily for 7 days and signs of ocular inflammation were observed.

[3] = test system: New Zealand White rabbits; assay: Pupillary size after ocular instillation of neostigmine solution in rabbits; format: in vivo, rabbit; settings: for mean [SD] pupillary size, right eye: saline left eye 7.0 mm, p=0.0001
Protocol: as §1, §2
Male New Zealand White rabbits (2.5-3.0 kg body weight) were used in all experiments. The animals were kept in a room of controlled room temperature (24.0+1.0° C.) and humidity and a fixed dark light cycle (light on at 7:00 am and off at 19:00 pm).
The sterile neostigmine solution (2.5 mg/ml) was instilled into the right eye (one drop), while the control eye (left eye) received one drop of sterile saline (0.9% sodium chloride). Assessment of pupillary size was done at 30 minute intervals following instillation of neostigmine. The left eye of each rabbit acted as control for the right one.
The amount of neostigmine methylsulphate was calculated to be 0.1 mg/drop. Therefore, each rabbit's eye was instilled by 0.1 mg of sterile neostigmine methylsulphate. The sterile dropper for instilling neostigmine was used only once and then discarded. To prevent the drop of neostigmine from leaking out of the rabbit's eye, the lower eye lid of the rabbits was held out for at least 2-3 minutes in order to keep the drop inside the eye and allow for better absorption of the drug through the cornea.
as §3
The mean values for the pupil sizes of the right eyes were recorded as well as those of the left eyes, separately. Paired t-test was used for comparison of data among the different groups on SPSS software. A probability value of <0.05 was considered to be significant.

CN(C)C(=O)Oc1cccc([N+](C)(C)C)c1 [neostigmine, 3-(trimethylamino)phenyl N,N-dimethylcarbamate]
response of ptosis (palpebral fissure height) ([1]; 3 patients with no prior treatment for MG (Patients 1, 2 and 5)): dramatic | increase of the palpebral fissure height ([1]; all 6 patients with MG, 30 minutes after instillation of one drop 2.5 mg/ml per symptomatic eye): at least 2 mm | ocular inflammation [2]: no ocular inflammation | pupil diameter, right eye, representative rabbit (FIG. 2) ([3]; 1 week after daily instillation of 1 drop, last drop 24 hours previously): 6.0 mm | pupil diameter, right eye, representative rabbit (FIG. 2) ([3]; 30 mins post neostigmine, pre 6.0 mm): 2.0 mm | mean [SD] pupillary size, right eye ([3]; 30 minutes after one drop of 2.5 mg/ml solution (0.1 mg) in right eye, 30 rabbits): 4.8 mm | pupil diameter, right eye, representative rabbit (FIG. 2) ([3]; 60 mins post neostigmine, pre 6.0 mm): 1.5 mm | mean [SD] pupillary size, right eye ([3]; 60 minutes after one drop of 2.5 mg/ml solution (0.1 mg) in right eye): 4.8 mm
